Test results published in patent US11231416B2, “Virus-like particle (VLP) based small molecule-protein interaction trap” (VIB VZW, priority 2015, dated 2022).

Key:
GALNT1 = target: T1, GALNT1 (Homo sapiens, UniProt Q10472); assay: Viral trapping in VLPs, MS analysis; format: binding; details: all proteins (incl. low confidence identifications)
T1 construct: endogenous in cells; host or cells: HEK293T

TMED5 = target: T2, TMED5 (Homo sapiens, UniProt Q9Y3A6); assay: Viral trapping in VLPs, MS analysis; format: binding; details: all proteins (incl. low confidence identifications)
T2 construct: endogenous in cells; host or cells: HEK293T

ATP6V0C = target: T3, ATP6V0C (Homo sapiens, UniProt P27449); assay: Viral trapping in VLPs, MS analysis; format: binding; details: all proteins (incl. low confidence identifications)
T3 construct: endogenous in cells; host or cells: HEK293T

KRT6B = target: T4, KRT6B (Homo sapiens, UniProt P04259); assay: Viral trapping in VLPs, MS analysis; format: binding
T4 construct: endogenous in cells; host or cells: HEK293T

VAMP4 = target: T5, VAMP4 (Homo sapiens, UniProt O75379); assay: Viral trapping in VLPs, MS analysis; format: binding; details: all proteins (incl. low confidence identifications)
T5 construct: endogenous in cells; host or cells: HEK293T

DDTL = assay: Viral trapping in VLPs, MS analysis; format: binding, human; details: all proteins (incl. low confidence identifications)
RAB4A = target: T6, RAB4A (Homo sapiens, UniProt P20338); assay: Viral trapping in VLPs, MS analysis; format: binding; details: all proteins (incl. low confidence identifications)
T6 construct: endogenous in cells; host or cells: HEK293T

LAMTOR5 = target: T7, LAMTOR5 (Homo sapiens, UniProt O43504); assay: Viral trapping in VLPs, MS analysis; format: binding; details: all proteins (incl. low confidence identifications)
T7 construct: endogenous in cells; host or cells: HEK293T

TMED9 = target: T8, TMED9 (Homo sapiens, UniProt Q9BVK6); assay: Viral trapping in VLPs, MS analysis; format: binding; details: all proteins (incl. low confidence identifications)
T8 construct: endogenous in cells; host or cells: HEK293T

DBI = target: T9, DBI (Homo sapiens, UniProt P07108); assay: Viral trapping in VLPs, MS analysis; format: binding; details: all proteins (incl. low confidence identifications)
T9 construct: endogenous in cells; host or cells: HEK293T

CTU1 = target: T10, CTU1 (Homo sapiens, UniProt Q7Z7A3); assay: Viral trapping in VLPs, MS analysis; format: binding
T10 construct: endogenous in cells; host or cells: HEK293T

SARM1 = target: T11, SARM1 (Homo sapiens, UniProt Q6SZW1); assay: Viral trapping in VLPs, MS analysis; format: binding
T11 construct: endogenous in cells; host or cells: HEK293T

SLC17A1 = target: T12, SLC17A1 (Homo sapiens, UniProt Q14916); assay: Viral trapping in VLPs, MS analysis; format: binding; details: all proteins (incl. low confidence identifications)
T12 construct: endogenous in cells; host or cells: HEK293T

KIAA0319L = target: T13, KIAA0319L (Homo sapiens, UniProt Q8IZA0); assay: Viral trapping in VLPs, MS analysis; format: binding
T13 construct: endogenous in cells; host or cells: HEK293T

SLC46A1 = target: T14, SLC46A1 (Homo sapiens, UniProt Q96NT5); assay: Viral trapping in VLPs, MS analysis; format: binding; details: all proteins (incl. low confidence identifications)
T14 construct: endogenous in cells; host or cells: HEK293T

UBIAD1 = target: T15, UBIAD1 (Homo sapiens, UniProt Q9Y5Z9); assay: Viral trapping in VLPs, MS analysis; format: binding
T15 construct: endogenous in cells; host or cells: HEK293T
Procedure: (§1) To screen for simvastatin binders, cells were transfected with the GAG-eDHFR construct and then treated immediately after transfection with the MTX-PEG6-simvastatin molecule. A total of five biological repeats were performed together with four DMSO control experiments. The list of candidate interactors was obtained after removal of all proteins (including proteins identified with a single peptide) that were found in 19 control samples, the four DMSO samples and the other small molecule samples (e.g., the protein list of the five simvastatin samples was challenged against a total of 29 samples). The control samples are a number of successful Virotrap experiments using unrelated proteins to generate a list of proteins that can be considered background proteins, and that can be subtracted from the protein list obtained for the actual samples.
(§2) For each small molecule condition, two lists of proteins (annotated by their gene name) were reported. The left part of the tables (“All proteins”) contains all unique protein identifications (thus also proteins identified with a single peptide) obtained after removal of the background proteins. The right part of the tables (“Proteins identified with >1 peptide”) contains only the proteins identified with high confidence (at least two modified peptide identifications for each protein). Some recurrent proteins that were identified in multiple experiments with a single peptide are removed from this list (e.g., PYGM identified with low confidence in two repeat experiments).

SQLE = target: T16, SQLE (Homo sapiens, UniProt Q14534); assay: Viral trapping in VLPs, MS analysis; format: binding
T16 construct: endogenous in cells; host or cells: HEK293T
Procedure: as §1, §2

VPS37D = target: T17, VPS37D (Homo sapiens, UniProt Q86XT2); assay: Viral trapping in VLPs, MS analysis; format: binding; details: all proteins (incl. low confidence identifications)
T17 construct: endogenous in cells; host or cells: HEK293T

SBDS = target: T18, SBDS (Homo sapiens, UniProt Q9Y3A5); assay: Viral trapping in VLPs, MS analysis; format: binding; details: all proteins (incl. low confidence identifications)
T18 construct: endogenous in cells; host or cells: HEK293T

FHL1 = target: T19, FHL1 (Homo sapiens, UniProt Q13642); assay: Viral trapping in VLPs, MS analysis; format: binding; details: all proteins (incl. low confidence identifications)
T19 construct: endogenous in cells; host or cells: HEK293T

RBP4 = assay: Viral trapping in VLPs, MS analysis; format: binding, human; details: all proteins (incl. low confidence identifications)
PYGM = assay: Viral trapping in VLPs, MS analysis; format: binding, human; details: all proteins (incl. low confidence identifications)
SH3GL2 = target: T20, SH3GL2 (Homo sapiens, UniProt Q99962); assay: Viral trapping in VLPs, MS analysis; format: binding; details: all proteins (incl. low confidence identifications)
T20 construct: endogenous in cells; host or cells: HEK293T

LOC512271 = assay: Viral trapping in VLPs, MS analysis; format: binding; details: all proteins (incl. low confidence identifications)
EIF1AY = assay: Viral trapping in VLPs, MS analysis; format: binding, human; details: all proteins (incl. low confidence identifications)
FABP1 = target: T21, FABP1 (Homo sapiens, UniProt P07148); assay: Viral trapping in VLPs, MS analysis; format: binding; details: all proteins (incl. low confidence identifications)
T21 construct: endogenous in cells; host or cells: HEK293T

HMGCR = target: T22, HMGCR (Homo sapiens, UniProt P04035); assay: Viral trapping in VLPs, MS analysis; format: binding
T22 construct: endogenous in cells; host or cells: HEK293T

CNPY2 = target: T23, CNPY2 (Homo sapiens, UniProt Q9Y2B0); assay: Viral trapping in VLPs, MS analysis; format: binding; details: all proteins (incl. low confidence identifications)
T23 construct: endogenous in cells; host or cells: HEK293T

PRKCSH = target: T24, PRKCSH (Homo sapiens, UniProt P14314); assay: Viral trapping in VLPs, MS analysis; format: binding; details: all proteins (incl. low confidence identifications)
T24 construct: endogenous in cells; host or cells: HEK293T

AKT3 = target: T25, AKT3 (Homo sapiens, UniProt Q9Y243); assay: Viral trapping in VLPs, MS analysis; format: binding; details: all proteins (incl. low confidence identifications)
T25 construct: endogenous in cells; host or cells: HEK293T

GINS1 = target: T26, GINS1 (Homo sapiens, UniProt Q14691); assay: Viral trapping in VLPs, MS analysis; format: binding; details: all proteins (incl. low confidence identifications)
T26 construct: endogenous in cells; host or cells: HEK293T

PDIA4 = target: T27, PDIA4 (Homo sapiens, UniProt P13667); assay: Viral trapping in VLPs, MS analysis; format: binding
T27 construct: endogenous in cells; host or cells: HEK293T

LOC524129 = assay: Viral trapping in VLPs, MS analysis; format: binding; details: all proteins (incl. low confidence identifications)
MOXD1 = target: T28, MOXD1 (Homo sapiens, UniProt Q6UVY6); assay: Viral trapping in VLPs, MS analysis; format: binding; details: all proteins (incl. low confidence identifications)
T28 construct: endogenous in cells; host or cells: HEK293T

LNPEP = target: T29, LNPEP (Homo sapiens, UniProt Q9UIQ6); assay: Viral trapping in VLPs, MS analysis; format: binding; details: all proteins (incl. low confidence identifications)
T29 construct: endogenous in cells; host or cells: HEK293T

HSD17B4 = target: T30, HSD17B4 (Homo sapiens, UniProt P51659); assay: Binary MASPIT assay; format: cell-based; details: binary MASPIT assay
T30 construct: endogenous in cells; host or cells: HEK293T
T30 sequence (P51659 1-736): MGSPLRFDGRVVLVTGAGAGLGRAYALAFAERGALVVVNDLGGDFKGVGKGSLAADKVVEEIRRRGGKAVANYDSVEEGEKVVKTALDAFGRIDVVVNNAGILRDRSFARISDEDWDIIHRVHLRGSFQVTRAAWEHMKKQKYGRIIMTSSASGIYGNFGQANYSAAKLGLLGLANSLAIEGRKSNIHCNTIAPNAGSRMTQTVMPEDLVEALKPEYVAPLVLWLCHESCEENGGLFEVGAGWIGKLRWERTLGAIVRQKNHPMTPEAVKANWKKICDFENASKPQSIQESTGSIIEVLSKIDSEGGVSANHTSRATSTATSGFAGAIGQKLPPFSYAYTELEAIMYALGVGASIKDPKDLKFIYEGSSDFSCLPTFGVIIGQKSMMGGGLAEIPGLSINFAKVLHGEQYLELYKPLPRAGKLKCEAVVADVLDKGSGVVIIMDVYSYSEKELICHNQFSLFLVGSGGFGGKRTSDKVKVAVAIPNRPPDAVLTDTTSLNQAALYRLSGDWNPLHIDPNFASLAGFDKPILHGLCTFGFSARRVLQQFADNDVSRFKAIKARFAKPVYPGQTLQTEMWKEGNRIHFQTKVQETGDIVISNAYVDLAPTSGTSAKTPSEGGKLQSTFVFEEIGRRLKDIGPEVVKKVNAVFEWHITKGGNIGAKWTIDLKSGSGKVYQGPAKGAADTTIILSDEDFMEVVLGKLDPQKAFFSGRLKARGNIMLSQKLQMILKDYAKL
Procedure: The binding of HSD17B4 to tamoxifen was further confirmed using the MASPIT technology. The binary MASPIT assay was essentially performed as described before (Risseeuw et al., 2013). Briefly, HEK293T cells were seeded in black tissue-culture treated 96-well plates at 10.000 cells/well in 100 μl culture medium (DMEM supplemented with 10% fetal calf serum), and grown at 37° C., 8% CO2. Twenty-four hours later cells were transfected with a combination of the pCLG-eDHFR plasmid (Risseeuw et al., 2013), the pMG1-HSD17B4 construct and the pXP2d2-rPAP1-luciferase reporter (Caligiuri et al., 2006). The pMG1-HSD17B4 construct was generated by Gateway transfer of the full size HSD17B4 ORF, obtained as an entry clone in the hORFeome collection, into the Gateway compatible pMG1 prey destination vector as described earlier (Lievens et al., 2009). Twenty-four hours after transfection, cells were either left unstimulated or treated with 100 ng/ml leptin, with or without addition of MTX-PEG6-tamoxifen. Another 24 hours later, luciferase activity was assayed using the Luciferase Assay System kit (Promega).

[1] = all proteins (incl. low confidence identifications)
[2] = proteins identified with >1 peptide (high confidence)

T22 sequence (P04035 whole entry): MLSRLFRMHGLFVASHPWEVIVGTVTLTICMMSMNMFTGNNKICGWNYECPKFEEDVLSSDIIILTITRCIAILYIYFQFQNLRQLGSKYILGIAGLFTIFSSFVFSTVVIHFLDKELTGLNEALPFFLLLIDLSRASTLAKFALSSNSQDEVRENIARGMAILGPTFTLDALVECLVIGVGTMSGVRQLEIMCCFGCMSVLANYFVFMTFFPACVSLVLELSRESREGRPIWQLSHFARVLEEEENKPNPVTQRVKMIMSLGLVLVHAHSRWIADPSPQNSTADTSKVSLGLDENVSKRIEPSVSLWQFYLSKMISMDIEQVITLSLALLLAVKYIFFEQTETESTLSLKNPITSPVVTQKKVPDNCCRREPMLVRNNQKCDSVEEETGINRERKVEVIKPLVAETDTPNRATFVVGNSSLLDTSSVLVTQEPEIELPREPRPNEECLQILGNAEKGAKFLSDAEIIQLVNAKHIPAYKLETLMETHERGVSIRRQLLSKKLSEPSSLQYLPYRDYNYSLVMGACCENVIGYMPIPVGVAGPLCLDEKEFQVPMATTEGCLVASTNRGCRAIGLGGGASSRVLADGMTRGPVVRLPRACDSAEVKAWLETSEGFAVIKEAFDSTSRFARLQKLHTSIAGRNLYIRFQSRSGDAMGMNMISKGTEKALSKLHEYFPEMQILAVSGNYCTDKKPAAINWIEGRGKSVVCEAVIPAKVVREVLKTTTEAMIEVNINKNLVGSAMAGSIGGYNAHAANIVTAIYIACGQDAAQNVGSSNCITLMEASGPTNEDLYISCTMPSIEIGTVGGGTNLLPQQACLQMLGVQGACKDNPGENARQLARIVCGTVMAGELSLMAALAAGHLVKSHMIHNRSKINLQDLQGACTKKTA
T11 sequence (Q6SZW1 28-724): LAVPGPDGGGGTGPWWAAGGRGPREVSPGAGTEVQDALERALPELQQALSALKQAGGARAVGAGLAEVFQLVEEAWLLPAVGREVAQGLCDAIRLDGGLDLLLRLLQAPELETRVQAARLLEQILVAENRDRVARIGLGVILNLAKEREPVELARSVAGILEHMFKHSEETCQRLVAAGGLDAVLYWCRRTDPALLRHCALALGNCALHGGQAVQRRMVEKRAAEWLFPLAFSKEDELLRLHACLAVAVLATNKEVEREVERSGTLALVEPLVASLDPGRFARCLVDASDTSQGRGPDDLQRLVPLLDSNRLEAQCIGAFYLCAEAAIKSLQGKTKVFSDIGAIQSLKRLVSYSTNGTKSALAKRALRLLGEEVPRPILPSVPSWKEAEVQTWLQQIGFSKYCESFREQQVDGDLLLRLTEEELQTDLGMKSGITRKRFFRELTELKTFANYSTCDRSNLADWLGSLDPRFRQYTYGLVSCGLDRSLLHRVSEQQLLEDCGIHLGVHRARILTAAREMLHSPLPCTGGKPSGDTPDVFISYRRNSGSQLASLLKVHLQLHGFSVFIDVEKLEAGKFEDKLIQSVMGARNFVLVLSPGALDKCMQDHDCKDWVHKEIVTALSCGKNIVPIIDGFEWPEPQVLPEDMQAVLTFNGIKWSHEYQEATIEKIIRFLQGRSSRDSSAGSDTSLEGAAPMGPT
T16 sequence (Q14534 whole entry): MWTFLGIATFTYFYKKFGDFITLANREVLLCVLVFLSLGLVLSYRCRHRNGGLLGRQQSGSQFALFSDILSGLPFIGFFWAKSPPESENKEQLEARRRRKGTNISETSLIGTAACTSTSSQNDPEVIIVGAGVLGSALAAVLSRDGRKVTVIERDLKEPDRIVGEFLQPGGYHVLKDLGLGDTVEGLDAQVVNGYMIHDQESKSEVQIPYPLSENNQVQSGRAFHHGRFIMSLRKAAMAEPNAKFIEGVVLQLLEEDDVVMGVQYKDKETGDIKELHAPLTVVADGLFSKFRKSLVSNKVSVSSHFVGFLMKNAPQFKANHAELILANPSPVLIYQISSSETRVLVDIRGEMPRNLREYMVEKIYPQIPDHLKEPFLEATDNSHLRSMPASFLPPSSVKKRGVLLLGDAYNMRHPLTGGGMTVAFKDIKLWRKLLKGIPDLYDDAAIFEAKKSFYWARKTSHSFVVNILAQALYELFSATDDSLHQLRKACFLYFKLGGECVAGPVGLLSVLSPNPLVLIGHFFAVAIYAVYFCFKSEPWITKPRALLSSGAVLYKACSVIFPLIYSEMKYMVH
T13 sequence (Q8IZA0 whole entry): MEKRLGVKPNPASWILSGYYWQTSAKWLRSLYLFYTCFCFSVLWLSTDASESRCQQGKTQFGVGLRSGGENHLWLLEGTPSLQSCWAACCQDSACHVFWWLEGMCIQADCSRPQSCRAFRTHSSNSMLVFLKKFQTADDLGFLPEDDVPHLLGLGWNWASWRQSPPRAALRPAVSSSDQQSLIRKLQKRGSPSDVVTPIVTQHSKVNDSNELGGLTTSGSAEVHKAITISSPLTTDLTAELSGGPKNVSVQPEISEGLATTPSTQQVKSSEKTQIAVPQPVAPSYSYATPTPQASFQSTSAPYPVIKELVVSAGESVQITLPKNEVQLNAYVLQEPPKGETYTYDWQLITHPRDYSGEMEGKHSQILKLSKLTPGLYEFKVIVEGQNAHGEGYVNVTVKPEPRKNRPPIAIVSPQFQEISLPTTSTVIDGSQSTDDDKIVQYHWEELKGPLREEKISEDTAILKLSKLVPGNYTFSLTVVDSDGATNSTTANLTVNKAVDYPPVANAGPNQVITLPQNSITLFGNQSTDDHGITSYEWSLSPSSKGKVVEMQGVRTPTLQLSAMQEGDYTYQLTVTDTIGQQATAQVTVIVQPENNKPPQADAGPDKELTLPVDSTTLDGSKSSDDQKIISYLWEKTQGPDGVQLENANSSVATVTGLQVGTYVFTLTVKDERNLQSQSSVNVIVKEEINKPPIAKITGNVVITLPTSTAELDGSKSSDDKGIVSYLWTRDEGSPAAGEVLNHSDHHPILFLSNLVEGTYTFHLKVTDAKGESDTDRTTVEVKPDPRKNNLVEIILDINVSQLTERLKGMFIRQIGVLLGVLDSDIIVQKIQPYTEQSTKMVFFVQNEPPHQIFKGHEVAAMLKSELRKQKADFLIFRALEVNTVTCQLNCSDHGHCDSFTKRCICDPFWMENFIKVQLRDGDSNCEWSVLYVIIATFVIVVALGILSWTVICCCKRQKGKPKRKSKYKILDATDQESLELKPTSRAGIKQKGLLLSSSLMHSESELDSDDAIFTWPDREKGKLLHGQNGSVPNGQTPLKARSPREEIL
T4 sequence (P04259 whole entry): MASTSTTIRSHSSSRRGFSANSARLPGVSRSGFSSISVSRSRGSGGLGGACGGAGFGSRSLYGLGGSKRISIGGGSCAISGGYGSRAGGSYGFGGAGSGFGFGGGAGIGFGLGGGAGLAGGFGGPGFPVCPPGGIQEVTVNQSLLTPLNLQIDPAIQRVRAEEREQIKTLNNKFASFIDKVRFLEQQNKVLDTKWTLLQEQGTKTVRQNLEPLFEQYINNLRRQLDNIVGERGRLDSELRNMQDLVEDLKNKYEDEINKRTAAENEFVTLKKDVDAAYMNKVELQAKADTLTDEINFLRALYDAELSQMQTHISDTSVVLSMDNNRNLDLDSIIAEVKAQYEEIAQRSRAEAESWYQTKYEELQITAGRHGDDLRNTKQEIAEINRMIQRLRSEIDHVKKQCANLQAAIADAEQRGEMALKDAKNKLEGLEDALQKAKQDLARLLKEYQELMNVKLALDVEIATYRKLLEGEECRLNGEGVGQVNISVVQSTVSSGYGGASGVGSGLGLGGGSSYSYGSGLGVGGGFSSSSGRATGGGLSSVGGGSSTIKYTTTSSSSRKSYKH
T15 sequence (Q9Y5Z9 whole entry): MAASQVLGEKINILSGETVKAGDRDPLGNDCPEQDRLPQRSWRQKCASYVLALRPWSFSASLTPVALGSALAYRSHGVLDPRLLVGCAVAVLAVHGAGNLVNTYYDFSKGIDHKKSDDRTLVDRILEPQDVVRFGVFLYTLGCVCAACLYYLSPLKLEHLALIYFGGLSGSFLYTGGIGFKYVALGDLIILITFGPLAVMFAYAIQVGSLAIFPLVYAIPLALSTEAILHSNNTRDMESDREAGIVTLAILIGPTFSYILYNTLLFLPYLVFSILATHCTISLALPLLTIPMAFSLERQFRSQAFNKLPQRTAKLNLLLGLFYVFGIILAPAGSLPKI
T27 sequence (P13667 21-645): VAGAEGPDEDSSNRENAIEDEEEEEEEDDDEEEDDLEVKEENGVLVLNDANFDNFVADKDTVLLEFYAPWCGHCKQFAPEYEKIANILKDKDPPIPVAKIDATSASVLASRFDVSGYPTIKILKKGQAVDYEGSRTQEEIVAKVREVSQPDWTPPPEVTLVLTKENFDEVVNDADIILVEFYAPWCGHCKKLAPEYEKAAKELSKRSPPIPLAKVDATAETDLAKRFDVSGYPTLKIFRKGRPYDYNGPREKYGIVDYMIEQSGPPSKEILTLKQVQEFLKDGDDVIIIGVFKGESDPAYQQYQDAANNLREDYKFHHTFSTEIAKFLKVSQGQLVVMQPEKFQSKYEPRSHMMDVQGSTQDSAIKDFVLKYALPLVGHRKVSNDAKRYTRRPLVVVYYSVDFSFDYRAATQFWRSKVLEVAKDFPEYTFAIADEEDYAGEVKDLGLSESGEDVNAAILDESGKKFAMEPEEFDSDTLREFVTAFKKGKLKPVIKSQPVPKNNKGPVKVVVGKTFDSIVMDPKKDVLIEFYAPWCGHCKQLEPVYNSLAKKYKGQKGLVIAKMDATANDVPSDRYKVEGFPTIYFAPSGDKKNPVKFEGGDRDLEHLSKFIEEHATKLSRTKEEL
T26 sequence (Q14691 whole entry): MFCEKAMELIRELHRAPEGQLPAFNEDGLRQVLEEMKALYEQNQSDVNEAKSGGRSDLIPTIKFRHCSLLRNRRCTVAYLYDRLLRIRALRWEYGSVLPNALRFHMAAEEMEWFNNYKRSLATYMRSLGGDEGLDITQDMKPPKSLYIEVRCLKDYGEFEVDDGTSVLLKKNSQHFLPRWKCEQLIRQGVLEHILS
T9 sequence (P07108 whole entry): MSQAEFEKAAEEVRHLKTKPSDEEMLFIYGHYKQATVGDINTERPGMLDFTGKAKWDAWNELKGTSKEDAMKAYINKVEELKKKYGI

## CC1C=C2C=CC(C)C(CCC3CC(O)CC(=O)O3)C2C(OC(=O)C(C)(C)Cc2cn(CCOCCOCCOCCOCCOCCNC(=O)CCC(NC(=O)c3ccc(N(C)Cc4cnc5nc(N)nc(N)c5n4)cc3)C(=O)O)nn2)C1 (centres unmarked) [MTX-PEG6-simvastatin]
GALNT1
  Recurrence (x/5): 1 x/5
TMED5
  Recurrence (x/5): 1 x/5
ATP6V0C
  Recurrence (x/5): 1 x/5
KRT6B; [1]
  Recurrence (x/5): 1 x/5
KRT6B; [2]
  Recurrence (x/5): 1 x/5
VAMP4
  Recurrence (x/5): 1 x/5
DDTL
  Recurrence (x/5): 1 x/5
RAB4A
  Recurrence (x/5): 1 x/5
LAMTOR5
  Recurrence (x/5): 1 x/5
TMED9
  Recurrence (x/5): 1 x/5
DBI
  Recurrence (x/5): 1 x/5
CTU1; [1]
  Recurrence (x/5): 1 x/5
CTU1; [2]
  Recurrence (x/5): 1 x/5
SARM1; [1]
  Recurrence (x/5): 3 x/5
SARM1; [2]
  Recurrence (x/5): 3 x/5
SLC17A1
  Recurrence (x/5): 1 x/5
KIAA0319L; [1]
  Recurrence (x/5): 1 x/5
KIAA0319L; [2]
  Recurrence (x/5): 1 x/5
SLC46A1
  Recurrence (x/5): 1 x/5
UBIAD1; [1]
  Recurrence (x/5): 1 x/5
UBIAD1; [2]
  Recurrence (x/5): 1 x/5
SQLE; [1]
  Recurrence (x/5): 4 x/5
SQLE; [2]
  Recurrence (x/5): 3 x/5
VPS37D
  Recurrence (x/5): 1 x/5
SBDS
  Recurrence (x/5): 1 x/5
FHL1
  Recurrence (x/5): 1 x/5
RBP4
  Recurrence (x/5): 1 x/5
PYGM
  Recurrence (x/5): 2 x/5
SH3GL2
  Recurrence (x/5): 1 x/5
LOC512271
  Recurrence (x/5): 1 x/5
EIF1AY
  Recurrence (x/5): 1 x/5
FABP1
  Recurrence (x/5): 1 x/5
HMGCR; [1]
  Recurrence (x/5): 5 x/5
HMGCR; [2]
  Recurrence (x/5): 5 x/5
CNPY2
  Recurrence (x/5): 1 x/5
PRKCSH
  Recurrence (x/5): 1 x/5
AKT3
  Recurrence (x/5): 1 x/5
GINS1
  Recurrence (x/5): 1 x/5
PDIA4; [1]
  Recurrence (x/5): 1 x/5
PDIA4; [2]
  Recurrence (x/5): 1 x/5
LOC524129
  Recurrence (x/5): 1 x/5
MOXD1
  Recurrence (x/5): 1 x/5
LNPEP
  Recurrence (x/5): 1 x/5

## CC/C(=C(\c1ccccc1)c1ccc(OCCN(C)C)cc1)c1ccccc1 [tamoxifen, reference compound]
HSD17B4
  interaction between tamoxifen and HSD17B4: confirmed
